Bridges are numbered along the chain shown (N, C = ends). Where no end group is shown, it is not given here.
Columns and labels:
[1] = system: E. coli CICC21530 (serotype O157:H7); format: cell-based, Escherichia coli; settings: microbroth dilution, MH medium, 1 × 10^5 CFU/ml, 37 °C, 18–24 h; representative of three independent experiments
Method: (§1) The antimicrobial activity of peptides was determined by the microbroth dilution method. The bacterial strains were incubated in Mueller-Hinton (MH) medium at 37 °C overnight until the mid-log phase (OD600 nm reading of 0.5). Bacteria were diluted to 1 × 10^5 CFU/ml and added into 96-well plates, followed by the addition of serial dilutions of peptides (from 0.0625 to 128 μg/ml). The plates were incubated at 37 °C for 18–24 h. The MIC value was determined as the lowest peptide concentration at which no bacterial growth was observed. All tests were conducted in triplicate.

[2] = system: E. coli CVCC1515; format: cell-based, Escherichia coli; settings: microbroth dilution, MH medium, 1 × 10^5 CFU/ml, 37 °C, 18–24 h; representative of three independent experiments
Method: as §1

[3] = system: S. enteritidis CVCC3377; format: cell-based, Salmonella enteritidis; settings: microbroth dilution, MH medium, 1 × 10^5 CFU/ml, 37 °C, 18–24 h; representative of three independent experiments
Method: as §1

[4] = system: Bacillus subtilis ATCC6633; format: cell-based; settings: microbroth dilution, MH medium, 1 × 10^5 CFU/ml, 37 °C, 18–24 h; representative of three independent experiments
Method: as §1

[5] = system: Enterococcus faecium CMCC1.2136; format: cell-based; settings: microbroth dilution, MH medium, 1 × 10^5 CFU/ml, 37 °C, 18–24 h; representative of three independent experiments
Method: as §1

[6] = system: Escherichia coli CVCC195; format: cell-based; settings: microbroth dilution, MH medium, 1 × 10^5 CFU/ml, 37 °C, 18–24 h; representative of three independent experiments
Method: as §1

[7] = system: Listeria ivanovii ATCC19119; format: cell-based; settings: microbroth dilution, MH medium, 1 × 10^5 CFU/ml, 37 °C, 18–24 h; representative of three independent experiments
Method: as §1

[8] = system: Pseudomonas aeruginosa CICC10419; format: cell-based; settings: microbroth dilution, MH medium, 1 × 10^5 CFU/ml, 37 °C, 18–24 h; representative of three independent experiments
Method: as §1

[9] = system: S. choleraesuis CVCC503; format: cell-based; settings: microbroth dilution, MH medium, 1 × 10^5 CFU/ml, 37 °C, 18–24 h; representative of three independent experiments
Method: as §1

[10] = system: S. pullorum CVCC1789; format: cell-based; settings: microbroth dilution, MH medium, 1 × 10^5 CFU/ml, 37 °C, 18–24 h; representative of three independent experiments
Method: as §1

[11] = system: S. pullorum CVCC1802; format: cell-based; settings: microbroth dilution, MH medium, 1 × 10^5 CFU/ml, 37 °C, 18–24 h; representative of three independent experiments
Method: as §1

[12] = system: S. suis CVCC606; format: cell-based; settings: microbroth dilution, MH medium, 1 × 10^5 CFU/ml, 37 °C, 18–24 h; representative of three independent experiments
Method: as §1

[13] = system: Salmonella typhimurium ATCC14028; format: cell-based; settings: microbroth dilution, MH medium, 1 × 10^5 CFU/ml, 37 °C, 18–24 h; representative of three independent experiments
Method: as §1

[14] = system: Staphylococcus aureus ATCC43300; format: cell-based; settings: microbroth dilution, MH medium, 1 × 10^5 CFU/ml, 37 °C, 18–24 h; representative of three independent experiments
Method: as §1

[15] = system: P. aeruginosa CICC21630; format: cell-based, Pseudomonas aeruginosa; settings: microbroth dilution, MH medium, 1 × 10^5 CFU/ml, 37 °C, 18–24 h; representative of three independent experiments
Method: as §1

[16] = system: S. aureus ATCC25923; format: cell-based, Staphylococcus aureus; settings: microbroth dilution, MH medium, 1 × 10^5 CFU/ml, 37 °C, 18–24 h; representative of three independent experiments
Method: as §1

[17] = system: Candida albicans CGMCC2.2411; format: cell-based; settings: microbroth dilution, MH medium, 1 × 10^5 CFU/ml, 37 °C, 18–24 h; representative of three independent experiments
[18] = Calcein leakage from model eukaryotic membranes; format: biochemical; settings: POPC/cholesterol = 1:1 LUVs (500 μM lipid), 64 to 256 μg/ml, 5 min; 100% = 1% Triton X-100; n = 3
Method: Different lipids (Avanti Polar Linpids, Inc.) were used to prepare model membranes composed of POPC/ POPG (4:1 molar ratio) and POPC/cholesterol (1:1) by the extrusion method as previously described. POPC/POPG and POPC/cholesterol LUVs were used to mimic gram-negative bacterial and eukaryotic membranes, respectively. […] After incubation for 5 min, the fluorescence (F) (λexcitation = 492 nm, λemission = 518 nm) was measured on a microplate reader.

[19] = LPS binding, BODIPY-TR-cadaverine (BC) displacement; settings: 100 μM; 40 μg/ml LPS and 10 μM BC in 50 mM Tris buffer pH 7.4, 1 h, room temperature
Method: Equal volumes of 40 μg/ml LPS and 10 μM BC in 50 mM Tris buffer (pH 7.4) were mixed, added into 96-well plates and incubated in the dark for 4 h at room temperature. […] Fluorescence was then measured using a microplate reader (excitation/emission, 580/620 nm). The occupancy rate was calculated by the following equation: BC displacement rate (%) = (1 − (F0 − F)/(F0 − Fmax)) × 100, wherein F0 is the fluorescence intensity of the solution of BC alone; Fmax is the fluorescence intensity in the presence of LPS at the saturation concentration, and F is the intensity of LPS:BC mixtures at varying displacer concentrations.

[20] = system: murine erythrocytes; design: method as in PMID 24816779; settings: 128 μg/ml; parent peptide; cited from earlier work
[21] = system: E. coli CVCC1515; assay: E. coli-induced peritonitis model, survival; format: in vivo, ICR mice; settings: 7 days, six mice per group
Method: (§2) Mice injected with only bacteria or saline served as negative (untreated) or blank (unchallenged) controls, respectively. Survival of mice was recorded every 12 h and followed for 7 days.

[22] = system: S. enteritidis CICC22956; assay: S. enteritidis-induced peritonitis model, survival; format: in vivo, ICR mice; settings: 7 days, six mice per group
Method: as §2

[23] = system: E. coli 0111:B4 LPS; assay: LPS-induced endotoxemia model, survival; format: in vivo, C57BL/6 mice; settings: 7 days, six mice per group
Method: Eight-week-old SPF male C57BL/6 mice (20 g ± 5 g, six mice per group) were injected intraperitoneally with E. coli 0111:B4 LPS (30 mg/kg body weight, Sigma). […] Mice injected with PBS were used as the negative control. The mouse survival rate was recorded for 7 days.

[24] = system: IL-1β; assay: LPS-induced cytokine release, serum ELISA; format: in vivo, C57BL/6 mice; settings: 15 mg/kg intraperitoneal 0.5 h after 10 mg/kg LPS; LPS control 292.9; mean, n = 3 per group
Method: (§3) Blood was collected in a heparin sodium tube at 2 h or 8 h after LPS injection and incubated for 30 min at 37 °C and then overnight at 4 °C. After centrifugation at 3,000 rpm for 10 min at 4 °C, serum was collected from supernatant. The cytokine levels of TNF-α, IL-6 and IL-1β were detected by the Jiaxuan Biotech. Co. Ltd. (Beijing, China) using an enzyme linked immunosorbent assay (ELISA).

[25] = system: IL-6; assay: LPS-induced cytokine release, serum ELISA; format: in vivo, C57BL/6 mice; settings: 15 mg/kg intraperitoneal 0.5 h after 10 mg/kg LPS; LPS control 1026.8; mean, n = 3 per group
Method: as §3

[26] = system: TNF-α; assay: LPS-induced cytokine release, serum ELISA; format: in vivo, C57BL/6 mice; settings: 15 mg/kg intraperitoneal 0.5 h after 10 mg/kg LPS; LPS control 394.9; mean, n = 3 per group
Method: as §3

GFCWNVCVYRNGVRVCHRRCN (bicyclic or more) (disulfide 7-16, 3-20) [N1, parent marine peptide, variant of arenicin-3 (Tyr5 → Asn, Tyr17 → His) from the lugworm Arenicola marina, reference compound]
MIC [1]: 0.5 µg/mL | MIC [2]: 0.25 µg/mL | MIC [3]: 0.25 µg/mL | MIC [4]: 0.25 µg/mL | MIC [5]: >16 µg/mL | MIC [6]: 0.5 to 1 µg/mL | MIC [7]: 128 µg/mL | MIC [8]: 2 µg/mL | MIC [9]: 0.5 µg/mL | MIC [10]: 0.25 µg/mL | MIC [11]: 0.25 µg/mL | MIC [12]: 16 µg/mL | MIC [13]: 0.5 µg/mL | MIC [14]: 16 µg/mL | MIC [15]: 4 µg/mL | MIC [16]: 0.5 to 1 µg/mL | MIC [17]: 16 µg/mL | calcein dye leakage [18]: 2.5–25.3% | BC displacement percentage [19]: 79.8% | hemolysis [20]: 3%

polymyxin B [PMB]
calcein dye leakage [18]: 12.3–51.0% | BC displacement percentage [19]: 89.3% | survival rate ([21]; 0.31 mg/kg intraperitoneal at 0.5 and 8 h after inoculation): 66.7% | survival rate ([21]; 0.625 mg/kg intraperitoneal at 0.5 and 8 h after inoculation): 100% | survival rate ([22]; 0.31 mg/kg intraperitoneal at 0.5 h and 8 h after challenge): 83.3% | survival rate ([22]; 0.625 mg/kg intraperitoneal at 0.5 h and 8 h after challenge): 100% | survival rate ([23]; 10 mg/kg intraperitoneal at 0.5 h and 8 h after LPS (30 mg/kg)): 16.7% | survival rate ([23]; 15 mg/kg intraperitoneal at 0.5 h and 8 h after LPS (30 mg/kg)): 100% | serum level of IL-1β [24]: 242.8 pg/mL | serum level of IL-6 [25]: 514.9 pg/mL | serum level of TNF-α [26]: 74.0 pg/mL

— publication PMC5469750, “Antibacterial and detoxifying activity of NZ17074 analogues with multi-layers of selective antimicrobial actions against Escherichia coli and Salmonella enteritidis” (Scientific Reports, 2017)
